Experimental data from article PMC2664101 (Journal of medicinal chemistry, 2009).
Read-outs that look alike come from different tables or passages of the source.

What was measured:
rat nNOS = rat nNOS (Rattus norvegicus, UniProt P29476); conditions: comparing 27 with 16
[1] = test system: hypoxia-ischemia induced cerebral palsy; conditions: cited from earlier work; for fetal brain NOS activity in vivo / toxicity / cardiovascular effects / distribution to fetal brain / eNOS regulated blood pressure: rabbit; for hypoxia-ischemia induced deaths / number of newborn kits exhibiting symptoms of cerebral palsy: rabbit model for cerebral palsy
[2] = following maternal administration

Compound | drop in nNOS inhibitory potency (rat nNOS) | fetal brain NOS activity in vivo [1, 2] | toxicity [1, 2] | hypoxia-ischemia induced deaths [1] | number of newborn kits exhibiting symptoms of cerebral palsy [1] | cardiovascular effects ([1]; in vivo) | distribution to fetal brain ([1]; in vivo) | eNOS regulated blood pressure ([1]; in vivo) | toxicity ([1]; in vivo)
Cc1cc(C[C@H]2CNC[C@H]2NCCNCc2ccc(Cl)cc2)cc(N)n1.Cl (racemic) [compound 27, N^1-{(±)-4′-[(2”-amino-6”-methylpyridin-4”-yl)methyl]pyrrolidin-3′-yl}-N^2-(4′-chlorobenzyl)ethane-1,2-diamine tetrahydrochloride] | more than 200 fold |  |  |  |  |  |  |  | 
Cc1cc(N)nc(C[C@H]2CNC[C@H]2NCCNCc2ccc(Cl)cc2)c1.Cl [compound 16] |  | inhibit fetal brain NOS activity in vivo | non-toxic | prevent hypoxia-ischemia induced deaths | reduce the number of newborn kits exhibiting symptoms of cerebral palsy | without cardiovascular effects | distribute to fetal brain | without affecting the eNOS regulated blood pressure | 
Cc1cc(N)nc(C[C@H]2CNC[C@H]2NCCNCCc2cccc(F)c2)c1 [compound 26] |  | inhibit fetal brain NOS activity in vivo |  | prevent hypoxia-ischemia induced deaths | reduce the number of newborn kits exhibiting symptoms of cerebral palsy | without cardiovascular effects | distribute to fetal brain | without affecting the eNOS regulated blood pressure | non-toxic
